Experiments:
Format in all cases: cell-based, human
[1] = system: VEGF terminal exon splice site selection; assay: RT-PCR of podocyte mRNA for proximal (VEGFxxx) and distal (VEGFxxxb) spliced isoforms; settings: podocytes; for TGF-β1 induced VEGFxxxb expression, effect of inhibitor: FIG. 6; for TGF-β1 mediated increased intensity of the VEGFxxxb band (RT-PCR), effect of inhibitor: confirmed by Western blotting and ELISA
Method: To confirm that the changes seen by TGF-β1 were at the mRNA level, and the effect of inhibitors acted at the mRNA level, real time polymerase chain reaction (RT-PCR) was carried out using primers that detect both proximal splice isoforms (VEGFxxx, 135 bp band) and distal spliced isoforms (VEGFxxxb, 74 bp band). […] This increase in intensity was inhibited by SB203820, but not by the p42/p44MAPK inhibitor PD98059. […] These findings were confirmed by Western blotting (FIG. 5B) and ELISA (FIG. 5C).

[2] = system: VEGF terminal exon splice site selection; assay: VEGF isoform ELISA of podocytes (PCIP) after growth factor / inhibitor treatment; settings: for increase of VEGFxxxb protein level / increase of total VEGF protein expression: 48 h
Method: (§1) Proliferating Conditionally Immortalized Podocytes (PCIPs) were derived from cell lines conditionally transformed from normal human podocytes with temperature-sensitive mutant of immortalized SV-40 (Simian Virus 40) T-antigen. At the permissive temperature of 33° C. the SV-40 T-antigen is active and allows the cells to proliferate rapidly (46). PCIPs were cultured in T75 flasks (Greiner) in RPMI-1640® cell culture medium (Sigma) with 10% FBS (Foetal Bovine Serum), 1% ITS (Insulin Transferrin Selenium) (Sigma), 0.5% PSS (Penicillin Streptomycin Solution) (Sigma) and grown to 95% confluency. Then cells were split to six well plates (1×10^4 cells per well) and grown until 95% confluent.
We investigated time- and dose-dependent effects of Insulin-like Growth Factor 1 (IGF-1), Transforming Growth Factor β1 (TGF-β1) and Platelet-Derived Growth Factor (PDGF) on production of VEGF isoforms from cultured PCIPs. Twenty-four hours before treatment cultured medium was replaced with serum free RPMI-1654 medium (Sigma) containing 1% ITS (Sigma) and 0.5% PSS (Sigma). Subsequently, the medium was replaced with fresh serum free RPMI-1654 medium (Sigma) containing 1% ITS (Sigma), 0.5% PSS (Sigma) and increasing concentrations of IGF-1 (Sigma), or TGF-β1 (Sigma) or 40 ng/mL PDGF (Sigma). The conditioned media were collected 24 or 48 hours after stimulation (IGF-1, TGF-β1) and 48 hours (PDGF).
(§2) Total VEGF concentrations in the neat RPE conditioned medium were measured using a standard DuoSet VEGF ELISA (R&D) according to manufacture's instruction. VEGFxxxb was determined with a similar sandwich ELISA, using for capture a monoclonal biotinylated mouse anti-human antibody raised against the terminal nine amino acids of VEGF165b (R&D Systems Cat No. MVRL56/1) and a standard curve for this assay built with recombinant human VEGF165b (R&D). This MVRL56/1 antibody is a commercially available affinity purified mouse monoclonal IgG1 antibody, that has been characterised previously (42, 54).

[3] = system: VEGF terminal exon splice site selection; assay: Western blotting of podocyte cell lysate
Method: as §1
We investigated time- and dose-dependent effects of Insulin-like Growth Factor 1 (IGF-1), Transforming Growth Factor β1 (TGF-β1) and Platelet-Derived Growth Factor (PDGF) on production of VEGF isoforms from cultured PCIPs. Twenty-four hours before treatment cultured medium was replaced with serum free RPMI-1654 medium (Sigma) containing 1% ITS (Sigma) and 0.5% PSS (Sigma). […]
Protein samples were dissolved in Laemmli buffer, boiled for 3-4 min and centrifuged for 2 min at 20,000 g to remove insoluble materials. […] The immunoreactive bands corresponding to panVEGF and VEGFxxxb in each treatment were quantified by ImageJ analysis and normalised to those of β-tubulin.

[4] = system: VEGF terminal exon splice site selection; assay: IGF-induced proximal splicing (PSS) in podocytes by RT-PCR and ELISA; settings: for IGF-induced increase in PSS, effect of inhibitor: podocytes
Excerpt: Treatment of podocytes with IGF increases PSS as evidenced by RT-PCR and ELISA. This increase is inhibited by the PKC inhibitor BIM and the SR protein kinase inhibitor SERPIN340 (FIGS. 12 and 13).

[5] = system: VEGF terminal exon splice site selection; assay: Western blotting of RPE cells after IGF-1
Method: (§3) To determine the effects of agonists the RPE cells were cultured in freshly-replaced medium in the absence of FBS for 24 hours prior to agonist stimulation. IGF-1 (Sigma) and TNF-α (Sigma) were prepared in serum-free medium and were added in the volume of 2 ml at various concentrations, as indicated in the discussion below. No changes in cell morphology were noted on visualisation of the cells after stimulation. 24 hours later conditioned media in all experimental treatments were collected, spun down to remove debris, and placed immediately into −80° C. until the enzyme-linked immuno-sorbent assay (ELISA) was performed. The RPE cells were washed 3 times with ice-cold PBS and lysed in Laemmli buffer for Western blotting.
Protein samples were dissolved in Laemmli buffer, boiled for 3-4 min and centrifuged for 2 min at 20,000 g to remove insoluble materials. 15 μg protein per lane were separated by Sodium Dodecyl Sulfate Polyacrylamide Gel Electrophoresis (SDS/PAGE) (12%) and transferred to 0.2 μm nitrocellulose membrane. […] Subsequently the membranes were incubated with secondary horseradish peroxidase (HRP) conjugated antibody, and immunoreactive bands were visualised using enhanced chemiluminescence (ECL) reagent (Pierce). […]

[6] = system: VEGF terminal exon splice site selection; assay: VEGF isoform ELISA of RPE cells after agonist stimulation (IGF-1, TNF-α)
Method: Human donor eyes were obtained within 10-30 hours post-mortem from Bristol Eye Bank, Bristol, United Kingdom. Choroid-RPE sheets dissected from ocular globes were fragmented in a small amount of Dulbecco's Modification of Eagle's Medium: Ham's F12 mixture (DMEM: F12) (1:1)+GlutaMAX® supplement (Gibco) and RPE cells were isolated by digestion with 0.3 mg/ml collagenase (Gibco) for 15 min at 37° C. RPE cells were initially cultured for 5 days in the presence of 2.5% v/v foetal bovine serum (FBS) (Gibco) to prevent proliferation of fibroblasts and until the cell cultures became established. After the first passage cell culture was maintained in DMEM:F12 (1:1), supplemented with 10% v/v FBS and antibiotic/antimycotic solution (Sigma). The once passaged cells were homogeneous and contained only RPE as characterized by immunhistochemistry with anti-cytokeratin monoclonal antibody (Sigma). Cultures of RPE were routinely subcultured by trypsinisation (trypsin/EDTA, Sigma). RPE cells at passage 3-4 were plated onto 12.5 cm^2 Petri dishes (Nunc) and allowed to reach 70-80% confluency.
as §3, §2
Due to relatively low levels of VEGFxxxb found free in the supernatant of RPE cells, for VEGFxxxb ELISA total protein in conditioned medium was precipitated with trichloroacetic acid (TCA). For this purpose 250 μl ice cold 24% TCA and 6.25 μl 2% Sodium Deoxycholate were added to 700 μl conditioned medium and left on ice for 15 min. After centrifugation at 5000×g for 10 min, pellets were collected and resuspended in lysis buffer, containing: 20 mM Tris, pH7.4, 1.5% w/v Triton X-100, 150 mM NaCl, 10% w/v glycerol and protease inhibitors cocktail (Sigma). The pH in the pelleted samples was adjusted to 7.4 with 1.5M Tris (pH8.8). The total protein content in the pellet was measured in conventional manner using bicinchoninic acid (BCA) reagent (Sigma).

[7] = RT-PCR and ELISA (FIGS. 12 and 13)
[8] = podocytes, IGF-1, compared with control (FIG. 2B)

Question: COc1cccc(-c2cc(=O)c3ccccc3o2)c1N [PD98059] was tested. Which “TGF-β1 induced VEGFxxxb expression, effect of inhibitor” value [1] did it give?
Answer: Its value is “not affected”.

Question: With C[S+]([O-])c1ccc(-c2nc(-c3ccncc3)c(-c3ccc(F)cc3)[nH]2)cc1 (stereo not shown) [SB203580, reference compound] as the compound, how does the “TGF-β effect on expression of VEGFxxxb or VEGFxxx isoforms in presence of inhibitor” value ([2]; podocytes (FIG. 5B)) read?
Answer: Its value is “did not increase expression”.

Question: What about the “expression of VEGFxxx isoforms” value ([2]; podocytes treated with SB203580, below the detection limit) of the same compound?
Answer: The value was “did not increase”.

Question: And the VEGF165b expression ([2]; podocytes treated with SB203580, untreated 850±50 pg/mg protein (FIG. 5A))?
Answer: The VEGF165b expression was 450 ± 80 pg/mg.

Question: What about the “TGF-β1 mediated increased intensity of the VEGFxxxb band (RT-PCR), effect of inhibitor” value ([1]; TGF-β1 1 nM) of the same compound?
Answer: The value was “inhibited”.

Question: What about the “TGF-β1 upregulation of VEGF165b by Western blotting, effect of inhibitor” value ([3]; podocytes (FIG. 5C)) of the same compound?
Answer: The value was “inhibited”.

Question: For O=C(Nc1cc(C(F)(F)F)ccc1N1CCCCC1)c1ccncc1 [SERPIN340], which “IGF-induced increase in PSS, effect of inhibitor” value [4, 7] is on record?
Answer: The value was “inhibited”.

Question: What does the source list for CCN1/C(=C/C(C)=O)Sc2ccc(OC)cc21 [TG003]?
Answer: TGF-β1 induced VEGFxxxb expression, effect of inhibitor [1]: inhibited; TGF-β1 mediated increased intensity of the VEGFxxxb band (RT-PCR), effect of inhibitor ([1]; TGF-β1 1 nM): inhibited

Question: For “IGF-1: Insulin-like Growth Factor 1 (Sigma), growth factor favouring proximal splice site selection”, which VEGF165b levels [2, 8] is on record?
Answer: The VEGF165b levels was “decrease”.

Question: What about the “total VEGF levels” value [2, 8] of the same compound?
Answer: The value was “significant increase”.

Question: What about the “VEGF165b by Western blotting” value ([5]; 100 nM IGF (FIG. 3A)) of the same compound?
Answer: The value was “downregulated”.

Question: What about the “total VEGF relative to loading control by Western blotting” value ([5]; 100 nM IGF, β-actin loading control (FIG. 3B)) of the same compound?
Answer: Its value is “increase”.

Question: What about the “proximal splice site selection (PSS)” value ([4]; podocytes treated with IGF, RT-PCR and ELISA (FIGS. 12 and 13)) of the same compound?
Answer: The value was “increases”.

Question: And the “share of VEGF produced as VEGFxxxb” value ([6]; RPE cells after IGF-1 treatment, originally 80±32%)?
Answer: Its value is 5±20%.

Question: What about the VEGFtotal ([6]; RPE cells, 100 nM IGF-1, N=6, untreated 217±112) of the same compound?
Answer: The VEGFtotal was 1656±448 pg/mg protein.

Question: And the VEGFxxxb ([6]; RPE cells, 100 nM IGF-1, untreated 78±12)?
Answer: Its VEGFxxxb is 64±14 pg/mg protein.

Question: What about the VEGFxxx ([6]; RPE cells, 100 nM IGF-1, untreated 138±117) of the same compound?
Answer: Its VEGFxxx is 1592 pg/mg protein.

Question: For “TGF-β1: Transforming Growth Factor β1 (Sigma), growth factor favouring distal splice site selection”, which “fall of VEGFxxx expression levels” value ([2]; podocytes, 1 nM TGF-β) is on record?
Answer: The value was 70±7%.

Question: And the “increase of VEGFxxxb protein level” value ([2]; podocytes, TGF-β1 0.5 nM)?
Answer: The value was 2.9±1.4 fold.

Question: What about the “increase of total VEGF protein expression” value ([2]; podocytes, TGF-β1 0.5 nM) of the same compound?
Answer: Its value is 2.25±0.65 fold.

Question: And the “increase of VEGFxxxb protein level” value ([2]; podocytes, TGF-β1 1 nM)?
Answer: The value was 7.2±4.7 fold.

Question: What about the “increase of total VEGF protein expression” value ([2]; podocytes, TGF-β1 1 nM) of the same compound?
Answer: The value was 4.63±0.61 fold.

Question: What about the “relative density of the lower, VEGFxxxb, band (RT-PCR)” value ([1]; TGF-β1 1 nM) of the same compound?
Answer: Its value is “increase”.

Question: What about the “VEGF165b and VEGF121b isoforms by Western blotting” value ([3]; podocyte cell lysate, 0.5 and 1 nM TGF-β1 (FIG. 4B)) of the same compound?
Answer: The value was “upregulated”.

Question: For TNF-α, which “decrease of VEGFxxxb isoforms” value ([6]; RPE cells, 50 ng/ml TNF-α) is on record?
Answer: The value was 46±3%.

Question: And the “mean increase of VEGFxxx isoforms” value ([6]; RPE cells, 50 ng/ml TNF-α, n=3)?
Answer: Its value is 4.5±2.0 fold.

Question: What about the VEGFxxx isoforms ([6]; RPE cells, 50 ng/ml TNF-α, n=3, untreated 182±83) of the same compound?
Answer: Its VEGFxxx isoforms is 825±366 pg/mg protein.

Question: And the VEGFxxxb isoforms ([6]; RPE cells, 50 ng/ml TNF-α, untreated 99±26)?
Answer: The VEGFxxxb isoforms was 42±13 pg/mg protein.

Question: With bisindolyl maleimide [BIM] as the compound, how does the “IGF-induced increase in PSS, effect of inhibitor” value [4, 7] read?
Answer: Its value is “inhibited”.

Question: And the VEGF isoform favoured ([4]; summary statement)?
Answer: The VEGF isoform favoured was “favoured VEGF165b”.

From patent US9447418B2, “Pro- and anti-angiogenic treatments” (UNIVERSITY OF BRISTOL, priority 2007, dated 2016)
